In PubChem BioAssay AID2060602 (Molecular Pharmacology Branch, DTP, NCI, 2025):
pIC50: −log10 of the molar value. Where “and” joins values, the source holds several entries; their conditions need not be identical. Equal values may be shown once.

Test system: 648629-189-R-J1-PDC complex spheroids viability
Assay: Anticancer human tumor 648629-189-R-J1-PDC patient-derived bladder carcinoma cell line growth inhibition [CLK]
Details: for viability, T/C: stronger effect = lower value
Outline: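 Patient-derived tumor cells grown as complex spheroids with HUVEC endothelial cells and mesenchymal stem cells, treated with drug combinations. Concentrations descend in half-log steps from near clinical Cmax, or from 10 microM if Cmax unknown.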

[1] = curve of first compound, second compound 0.0316 µM
[2] = curve of first compound, second compound 0.1 µM
[3] = curve of first compound, second compound 0.316 µM
[4] = curve of first compound, second compound 1 µM
[5] = curve of first compound, second compound 3.16 µM
[6] = curve of first compound, second compound 10 µM
[7] = second compound 0.0316 µM, first compound 0.0316 µM
[8] = second compound 0.0316 µM, first compound 0.1 µM
[9] = second compound 0.0316 µM, first compound 0.316 µM
[10] = second compound 0.0316 µM, first compound 1 µM
[11] = second compound 0.0316 µM, first compound 3.16 µM
[12] = second compound 0.0316 µM, first compound 10 µM
[13] = second compound 0.1 µM, first compound 0.0316 µM
[14] = second compound 0.1 µM, first compound 0.1 µM
[15] = second compound 0.1 µM, first compound 0.316 µM
[16] = second compound 0.1 µM, first compound 1 µM
[17] = second compound 0.1 µM, first compound 3.16 µM
[18] = second compound 0.1 µM, first compound 10 µM
[19] = second compound 0.316 µM, first compound 0.0316 µM
[20] = second compound 0.316 µM, first compound 0.1 µM
[21] = second compound 0.316 µM, first compound 0.316 µM
[22] = second compound 0.316 µM, first compound 1 µM
[23] = second compound 0.316 µM, first compound 3.16 µM
[24] = second compound 0.316 µM, first compound 10 µM
[25] = second compound 1 µM, first compound 0.0316 µM
[26] = second compound 1 µM, first compound 0.1 µM
[27] = second compound 1 µM, first compound 0.316 µM
[28] = second compound 1 µM, first compound 1 µM
[29] = second compound 1 µM, first compound 3.16 µM
[30] = second compound 1 µM, first compound 10 µM
[31] = second compound 3.16 µM, first compound 0.0316 µM
[32] = second compound 3.16 µM, first compound 0.1 µM
[33] = second compound 3.16 µM, first compound 0.316 µM
[34] = second compound 3.16 µM, first compound 1 µM
[35] = second compound 3.16 µM, first compound 3.16 µM
[36] = second compound 3.16 µM, first compound 10 µM
[37] = second compound 10 µM, first compound 0.0316 µM
[38] = second compound 10 µM, first compound 0.1 µM
[39] = second compound 10 µM, first compound 0.316 µM
[40] = second compound 10 µM, first compound 1 µM
[41] = second compound 10 µM, first compound 3.16 µM
[42] = second compound 10 µM, first compound 10 µM
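Throughout, for viability, T/C: drug exposure lasted seven days before viability readout; 100% = DMSO vehicle control wells.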

CN1CCN(c2cc(C(=O)Nc3cc4cc(-c5cnn(C)c5)ccc4cn3)ccn2)CC1
viability, T/C (compound 0.0316 µM): 113% [middle of 12 runs]
viability, T/C (compound 0.1 µM): 105% [middle of 12 runs]
viability, T/C (compound 1 µM): 0.38% [middle of 11 runs]
viability, T/C (compound 3.16 µM): 0.16% [middle of 7 runs]
viability, T/C (compound 10 µM): 0.15% [middle of 7 runs]
IC50 (compound alone, run of 07/31/2023): 286 nM [middle of 11 runs]

COc1ccc([C@@H](O)c2cc(-c3ncnc4cc(N5CCOCC5)ccc34)c(F)cc2Cl)nn1 + CN1CCN(c2cc(C(=O)Nc3cc4cc(-c5cnn(C)c5)ccc4cn3)ccn2)CC1
pIC50 [1]: 5.11
pIC50 [2]: 5.09
pIC50 [3]: > 7.50
pIC50 [4]: > 7.50
pIC50 [5]: > 7.50
pIC50 [6]: > 7.50
viability, T/C [7]: 122%
viability, T/C [8]: 107%
viability, T/C [9]: 101%
viability, T/C [10]: 95.2%
viability, T/C [11]: 80%
viability, T/C [12]: 41.2%
viability, T/C [13]: 98%
viability, T/C [14]: 89%
viability, T/C [15]: 102%
viability, T/C [16]: 88.9%
viability, T/C [17]: 80.3%
viability, T/C [18]: 43.4%
viability, T/C [19]: 23%
viability, T/C [20]: 26%
viability, T/C [21]: 32.9%
viability, T/C [22]: 29.2%
viability, T/C [23]: 26.8%
viability, T/C [24]: 19.9%
viability, T/C [25]: 0.13%
viability, T/C [26]: 0.23%
viability, T/C [27]: 0.79%
viability, T/C [28]: 0.13%
viability, T/C [29]: 0.57%
viability, T/C [30]: 0.16%
viability, T/C [31]: 0.06%
viability, T/C [32]: 0.6%
viability, T/C [33]: 0.1%
viability, T/C [34]: 0.08%
viability, T/C [35]: 0.27%
viability, T/C [36]: 1.67%
viability, T/C [37]: 0.07%
viability, T/C [38]: 0.13%
viability, T/C [39]: 0.14%
viability, T/C [40]: 0.13%
viability, T/C [41]: 0.92%
viability, T/C [42]: 0.65%

O=C(c1cc(Cc2n[nH]c(=O)c3ccccc23)ccc1F)N1CCN(C(=O)C2CC2)CC1 + CNC(=O)c1ccc(Nc2nc(OC3CCCC3)c3c(-c4ccc5nc(C)oc5c4)c[nH]c3n2)c(OC)c1
pIC50 [1]: < 5.00
pIC50 [2]: < 5.00
pIC50 [3]: > 7.50
pIC50 [4]: > 7.50
pIC50 [5]: > 7.50
pIC50 [6]: > 7.50
viability, T/C [7]: 92.3%
viability, T/C [8]: 101%
viability, T/C [9]: 103%
viability, T/C [10]: 106%
viability, T/C [11]: 83.3%
viability, T/C [12]: 74.9%
viability, T/C [13]: 93.6%
viability, T/C [14]: 95.1%
viability, T/C [15]: 89.3%
viability, T/C [16]: 86.9%
viability, T/C [17]: 82.9%
viability, T/C [18]: 70.8%
viability, T/C [19]: 26.9%
viability, T/C [20]: 29%
viability, T/C [21]: 27.1%
viability, T/C [22]: 29.1%
viability, T/C [23]: 28.7%
viability, T/C [24]: 27.4%
viability, T/C [25]: 18.8%
viability, T/C [26]: 17.3%
viability, T/C [27]: 20.1%
viability, T/C [28]: 17.2%
viability, T/C [29]: 17.6%
viability, T/C [30]: 18.6%
viability, T/C [31]: 15.9%
viability, T/C [32]: 18.9%
viability, T/C [33]: 19%
viability, T/C [34]: 20.3%
viability, T/C [35]: 19%
viability, T/C [36]: 19.2%
viability, T/C [37]: 23.8%
viability, T/C [38]: 21.7%
viability, T/C [39]: 22%
viability, T/C [40]: 19%
viability, T/C [41]: 20.2%
viability, T/C [42]: 21.1%

NC(=O)C(=Cn1cnc(-c2cc(C(F)(F)F)cc(C(F)(F)F)c2)n1)c1cncnc1
viability, T/C (compound 0.00949 µM): 102% and 105%
viability, T/C (compound 0.03 µM): 86.1% and 84.8%
viability, T/C (compound 0.0949 µM): 24.7% and 19.3%
viability, T/C (compound 0.3 µM): 9.87% and 6.77%
viability, T/C (compound 0.949 µM): 3.5% and 4.03%
viability, T/C (compound 3 µM): 1.5% and 1.39%
pIC50 (curve of compound): 7.23 and 7.26
